Source: publication PMC11048566, “The Development of a Regulator of Human Serine Racemase for N-Methyl-D-aspartate Function” (Biomedicines, 2024)

Legend:
[1] = molecular target: D-amino acid oxidase (DAAO) (Homo sapiens, UniProt P14920); experiment: DAAO enzymatic assay; type: biochemical
Protocol: A reaction mixture for the DAAO assay, with a final volume of 100 µL was made with 1 µL 2 times serially diluted α12G (4 µM to 7.8 nM), 45 µM FAD, 10 units of HRP, 60 ng DAAO, 10 mM Amplex Red^TM, 5 mM D-serine, and 100 mM Tris HCl (pH = 8.5). All reactions were performed in duplicates. The fluorescence was detected by a fluorometric meter (TECAN Infinite 200). The racemization percentage was calculated as follows: activity % = (Fsample, 20 min − Fsample, 0 min)/(Fblank, 20 min − Fblank, 0 min) × 100%.

SR [2] = conditions: two-step enzymatic assay; read-out: IC50 of SR inhibition; cited from earlier work
[3] = molecular target: T1, human serine racemase (hSR) (Homo sapiens, UniProt Q9GZT4); experiment: Two-step enzymatic assay of hSR racemization (hSR, then DAAO/HRP/Amplex Red); type: biochemical; conditions: within the physiological range of ATP concentration
T1 construct: 6xHis (C); made in house; host or cells: E. coli BL21 (pET42b-hSR)
T1 sequence (Q9GZT4 1-340): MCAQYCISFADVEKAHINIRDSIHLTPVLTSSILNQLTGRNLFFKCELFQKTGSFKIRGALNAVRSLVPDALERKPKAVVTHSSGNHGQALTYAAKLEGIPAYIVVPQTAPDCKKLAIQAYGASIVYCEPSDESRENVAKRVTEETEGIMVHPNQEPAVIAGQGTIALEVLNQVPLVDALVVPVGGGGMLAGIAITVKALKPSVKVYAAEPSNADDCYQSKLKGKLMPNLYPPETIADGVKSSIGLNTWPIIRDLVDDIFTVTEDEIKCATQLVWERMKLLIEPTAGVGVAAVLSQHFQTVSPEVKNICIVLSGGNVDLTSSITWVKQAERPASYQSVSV
Protocol: This assay was designed by the formation of D-serine by hSR and the oxidation of D-serine by D-amino acid oxidase (DAAO) and horseradish peroxidase (HRP) with the peroxidase substrate Amplex Red^TM (10-acetyl-3,7-dihydroxyphenoxazine) (Thermo Fisher Scientific, Lagoas Park, Porto Salvo, Portugal). The hSR activity assay reaction was carried out in 100 mM HEPES buffer, pH 8.0, containing 2.4 µg of hSR protein, 50 µM PLP, 1 mM MgCl2, 0.25 mM ATP, 400 mM L-serine, and 2 times serially diluted α12G (8 mM to 0.2 µM). Compound-free wells were used as blank controls in the assay. All reactions were performed in duplicates. The reaction mixtures were incubated at 37 °C for 4 h. The reaction was stopped by heating the reaction mixtures at 95 °C for 10 min and storage at 4 °C. A reaction mixture for the second-step enzymatic assay, DAAO assay, with a final volume of 100 µL was made with a 10 µL sample from hSR assay, 45 µM FAD, 10 units of HRP, 60 ng DAAO, 10 mM lead acetate, 10 mM Amplex Red^TM, and 100 mM Tris HCl (pH = 8.5). Lead acetate was used to conjugate α12G as the latter would inhibit the DAAO function in the fluorometric assay, leading to an […] of the effects of α12G on hSR. The fluorescence was detected by the TECAN Infinite 200 Microplate Reader (GMI, MN, USA). The racemization percentage was calculated as follows: racemization % = (Fsample, 20 min − Fsample, 0 min)/(Fblank, 20 min − Fblank, 0 min) × 100%. […] The two-step enzymatic assay described in Section 2.3 was designed by the formation of D-serine by hSR and the consequent oxidation of D-serine by DAAO. The inhibition of DAAO, which also degrades D-serine, by α12G will lead to overestimating the effects of racemization by hSR. […] Therefore, lead acetate was applied to conjugate α12G for the determination of racemization. […] On the contrary, when the concentration of α12G is higher than 2 mM, the racemization activity of hSR is inhibited.

hSR = molecular target: T2, hSR (Homo sapiens, UniProt Q9GZT4); design: method as in PMID 29899358; conditions: 2 mM ATP, cited from earlier work
T2 construct: 6xHis (C); made in house; host or cells: E. coli BL21 (pET42b-hSR)
T2 sequence (Q9GZT4 1-340): T1 sequence (Q9GZT4 1-340)

SR [4] = experiment: D-serine and L-serine levels in cerebral cortex and plasma after IV DMM (LC-MS/MS); type: in vivo, C57BL/6J male mice; conditions: 400 mg/kg DMM IV, 30 min after administration, vs vehicle, n = 3
Protocol: For the determination of DAA concentration, C57BL/6J male mice received 50, 100, 200, and 400 mg/kg DMM (TGI, Tokyo, Japan) IV, and the mice were euthanized 30 min later. Cerebral cortex and plasma samples (n = 3 − 9) were collected and stored at −80 °C until the time of analysis. The brain tissues were weighed and homogenized on ice with 5-fold volumes of 1000 ng/mL tolbutamide (internal standard, IS, Sigma-Aldrich, St. Louis, MO, USA)) in methanol (Merck KGaA, Darmstadt, Germany). The plasma was combined with 4-fold volumes of 1250 ng/mL IS in methanol and vortexed for 2 min. The homogenates were centrifuged at 12,000× g […] for 10 min at 4 °C in an Eppendorf 5417R centrifuge (Eppendorf, Hamburg, Germany). The supernatant was passed through a 0.22 μm filter (Merck KGaA, Darmstadt, Germany) and analyzed by liquid chromatography–tandem mass spectrometry (LC-MS/MS) using the following method: An Agilent 1260 LC quaternary pump with an Agilent 1260 LC infinity autosampler and an Agilent 1100 column oven (Marshall Scientific, Hampton, NH, USA) were used to inject the samples onto an Astec Chirobiotic column (5 μm, 250 × 4.6 mm I.D., Sigma-Aldrich, St. Louis, MO, USA). The mobile phase was a 20/80 mixture of mobile phase A (0.1% formic acid (Sigma-Aldrich, St. Louis, MO, USA) in ddH2O) and mobile phase B (0.1% formic acid in acetonitrile), and the run was isocratic at a flow rate of 0.3 mL/min. Quantitation was achieved by MS/MS detection in positive ion multiple reaction monitoring (MRM) mode for analyte and IS using an AB SCIEX 3200 triple quadrupole ion trap mass spectrometer (AB Sciex, Framingham, MA, USA). The parameters for curtain gas, ion spray voltage, temperature, ion source gas 1, and ion source gas 2 were 10 psi, 5000 V, 550 °C, 35 psi, and 30 psi, respectively. AB SCIEX Analyst® (version 1.6.3, AB Sciex, Framingham, MA, USA) software was used for system control and data processing. To investigate the regulation of racemization by hSR, we applied DMM, the pro-drug of malonate, to C57BL/6J male mice. The mice were euthanized 30 min after the administration. The cerebral cortex and plasma were harvested and analyzed by LC-MS/MS to quantify D-serine and L-serine levels after the treatment with DMM (Figure 1). […] L-serine levels were also raised in the cerebral cortex 1.44 times (p < 0.001; n = 3; Student’s t-test) and in plasma 1.55 times (p < 0.05; n = 3; Student’s t-test).

## Nc1ccccc1N1CCOCC1 [x-0458, 2-morpholinoaniline, reference compound]
[1]
  Effect on DAAO: has an inhibitory effect on DAAO
SR [2]
  IC50: 10.6 µM

## Nc1ncnc2c1ncn2[C@@H]1O[C@H](COP(=O)(O)OP(=O)(O)OP(=O)(O)O)[C@@H](O)[C@H]1O [ATP]
[3]
  ATP concentration that promotes the most racemization by hSR: 0.25 mM
hSR; 200 mM L-serine, 37 °C
  Increase in enzyme activation, L-serine dehydration (kcat/KM 8.1 to 253 s^−1 M^−1): 31 fold
hSR
  Enhancement of D-serine dehydration (kcat/KM 0.6 to 2.4 s^−1 M^−1): 4 fold
  Enhancement of L-serine racemization (kcat/KM 9.2 to 17.5 s^−1 M^−1): 1.9 fold

## COC(=O)CC(=O)OC [DMM, dimethyl malonate]
SR [4]
  D-serine level in plasma, raised: 1.75 times
  D-serine level in the cerebral cortex, raised: 1.43 times
  L-serine level in plasma, raised: 1.55 times
  L-serine level in the cerebral cortex, raised: 1.44 times
